Assay results reported in the kinase profiling compilation of Christmann-Franck et al. (2016).

Key:
Assay in all cases: KINOMEscan competition binding
Details in all cases: compound 10.0 µM
[1] = target: YES1 (human) (UniProt P07947)
[2] = target: CSF1R (human) (UniProt P07333)
[3] = target: HCK (human) (UniProt P08631)
[4] = target: MAP4K2 (human) (UniProt Q12851)
[5] = target: NEK7 (human) (UniProt Q8TDX7)
[6] = target: CDC2L2 (human) (UniProt Q9UQ88)
[7] = target: NTRK1 (human) (UniProt P04629)
NTRK1 (human), sequence (P04629 whole entry, looked up): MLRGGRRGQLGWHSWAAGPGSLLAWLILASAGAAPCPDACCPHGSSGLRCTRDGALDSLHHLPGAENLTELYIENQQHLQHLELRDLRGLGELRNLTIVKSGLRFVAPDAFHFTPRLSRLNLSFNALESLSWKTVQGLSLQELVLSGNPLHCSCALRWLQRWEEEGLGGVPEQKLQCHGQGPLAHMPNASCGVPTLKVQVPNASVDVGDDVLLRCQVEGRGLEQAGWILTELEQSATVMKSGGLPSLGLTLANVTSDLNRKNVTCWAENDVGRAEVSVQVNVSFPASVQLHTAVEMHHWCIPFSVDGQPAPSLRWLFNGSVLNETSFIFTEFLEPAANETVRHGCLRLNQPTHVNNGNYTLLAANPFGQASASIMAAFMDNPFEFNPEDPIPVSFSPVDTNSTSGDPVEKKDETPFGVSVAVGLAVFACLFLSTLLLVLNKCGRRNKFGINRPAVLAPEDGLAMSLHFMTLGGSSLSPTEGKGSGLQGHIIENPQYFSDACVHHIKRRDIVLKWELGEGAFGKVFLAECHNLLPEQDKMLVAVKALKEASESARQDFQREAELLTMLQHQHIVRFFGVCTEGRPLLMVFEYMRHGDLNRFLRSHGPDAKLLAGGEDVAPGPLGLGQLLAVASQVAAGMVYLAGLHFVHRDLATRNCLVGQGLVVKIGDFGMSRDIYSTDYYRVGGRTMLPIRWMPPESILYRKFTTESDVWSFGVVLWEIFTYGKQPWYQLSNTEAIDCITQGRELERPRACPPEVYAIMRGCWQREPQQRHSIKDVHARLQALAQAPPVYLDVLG

[8] = target: MAP2K2 (human) (UniProt P36507)
[9] = target: EPHB6 (human) (UniProt O15197)
[10] = target: EPHB4 (human) (UniProt P54760)
EPHB4 (human), sequence (P54760 whole entry, looked up): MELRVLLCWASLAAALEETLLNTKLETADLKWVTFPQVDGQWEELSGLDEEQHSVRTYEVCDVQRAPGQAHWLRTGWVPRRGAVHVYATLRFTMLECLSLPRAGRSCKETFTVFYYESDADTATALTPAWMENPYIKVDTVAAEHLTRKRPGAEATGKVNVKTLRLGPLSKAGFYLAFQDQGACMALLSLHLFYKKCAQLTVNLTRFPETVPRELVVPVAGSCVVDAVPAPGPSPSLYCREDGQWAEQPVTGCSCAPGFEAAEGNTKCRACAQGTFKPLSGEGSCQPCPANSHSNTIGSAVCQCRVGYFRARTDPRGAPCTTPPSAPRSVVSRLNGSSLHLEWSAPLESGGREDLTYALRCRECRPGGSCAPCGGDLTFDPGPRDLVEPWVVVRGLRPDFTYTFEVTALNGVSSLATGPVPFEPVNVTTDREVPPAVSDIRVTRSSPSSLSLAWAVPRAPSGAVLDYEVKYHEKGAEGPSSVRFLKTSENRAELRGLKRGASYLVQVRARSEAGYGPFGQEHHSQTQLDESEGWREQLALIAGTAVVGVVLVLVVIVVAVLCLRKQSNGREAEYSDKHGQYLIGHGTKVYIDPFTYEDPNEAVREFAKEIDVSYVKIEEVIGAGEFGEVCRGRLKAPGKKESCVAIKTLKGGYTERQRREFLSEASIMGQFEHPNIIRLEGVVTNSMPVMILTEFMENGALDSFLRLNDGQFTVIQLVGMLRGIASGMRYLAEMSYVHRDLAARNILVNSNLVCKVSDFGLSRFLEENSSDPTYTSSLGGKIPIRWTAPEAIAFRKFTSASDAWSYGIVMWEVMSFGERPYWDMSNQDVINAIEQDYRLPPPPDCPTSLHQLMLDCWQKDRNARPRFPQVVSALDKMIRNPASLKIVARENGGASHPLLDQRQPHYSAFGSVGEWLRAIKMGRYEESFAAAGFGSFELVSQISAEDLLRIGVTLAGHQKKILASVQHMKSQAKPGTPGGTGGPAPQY

[11] = target: NUAK2 (human) (UniProt Q9H093)
[12] = target: JAK3 JH1 catalytic (human) (UniProt P52333)
[13] = test system: KIT (human), P10721 [V559D/V654A]
[14] = target: PRKD3 (human) (UniProt O94806)
[15] = target: AURKC (human) (UniProt Q9UQB9)
AURKC (human), sequence (Q9UQB9 whole entry, looked up): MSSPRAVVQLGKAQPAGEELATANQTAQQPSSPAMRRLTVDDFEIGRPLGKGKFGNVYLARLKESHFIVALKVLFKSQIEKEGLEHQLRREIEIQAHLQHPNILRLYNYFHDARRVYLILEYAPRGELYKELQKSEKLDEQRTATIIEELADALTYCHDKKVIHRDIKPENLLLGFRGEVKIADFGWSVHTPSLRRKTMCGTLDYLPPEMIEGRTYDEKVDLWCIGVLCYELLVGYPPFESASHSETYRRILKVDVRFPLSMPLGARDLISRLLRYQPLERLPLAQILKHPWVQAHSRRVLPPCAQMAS

[16] = target: DYRK1B (human) (UniProt Q9Y463)
[17] = target: CAMK1D (human) (UniProt Q8IU85)
[18] = target: NIM1 (human) (UniProt Q8IY84)
[19] = target: TESK1 (human) (UniProt Q15569)
[20] = target: MAPK10 (human) (UniProt P53779)
[21] = target: CHEK2 (human) (UniProt O96017)
[22] = target: RIPK4 (human) (UniProt P57078)
[23] = target: ANKK1 (human) (UniProt Q8NFD2)
ANKK1 (human), sequence (Q8NFD2 whole entry, looked up): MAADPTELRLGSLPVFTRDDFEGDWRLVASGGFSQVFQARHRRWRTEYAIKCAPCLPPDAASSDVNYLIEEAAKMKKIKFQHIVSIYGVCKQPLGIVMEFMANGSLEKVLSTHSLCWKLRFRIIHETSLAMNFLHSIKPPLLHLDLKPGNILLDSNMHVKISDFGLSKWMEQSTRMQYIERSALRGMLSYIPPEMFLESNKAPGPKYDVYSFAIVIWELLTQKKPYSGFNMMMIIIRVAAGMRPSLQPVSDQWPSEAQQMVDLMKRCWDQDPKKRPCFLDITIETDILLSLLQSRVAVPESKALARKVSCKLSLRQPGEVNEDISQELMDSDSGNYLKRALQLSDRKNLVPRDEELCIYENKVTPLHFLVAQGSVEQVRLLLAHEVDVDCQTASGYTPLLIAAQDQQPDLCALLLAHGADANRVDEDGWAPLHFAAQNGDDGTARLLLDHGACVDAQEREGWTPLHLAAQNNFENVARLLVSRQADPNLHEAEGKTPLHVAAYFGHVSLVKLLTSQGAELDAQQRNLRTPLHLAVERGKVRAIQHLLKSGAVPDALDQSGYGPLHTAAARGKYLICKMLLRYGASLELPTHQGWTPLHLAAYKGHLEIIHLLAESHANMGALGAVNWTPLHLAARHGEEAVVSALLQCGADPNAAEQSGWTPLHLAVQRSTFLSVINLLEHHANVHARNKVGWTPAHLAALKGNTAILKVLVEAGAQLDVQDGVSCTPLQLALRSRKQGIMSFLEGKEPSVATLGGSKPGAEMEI

[24] = target: MAPK11 (human) (UniProt Q15759)
[25] = target: ERBB2 (human) (UniProt P04626)
[26] = target: MAPK8 (human) (UniProt P45983)
[27] = target: AKT2 (human) (UniProt P31751)
[28] = target: ULK2 (human) (UniProt Q8IYT8)
ULK2 (human), sequence (Q8IYT8 whole entry, looked up): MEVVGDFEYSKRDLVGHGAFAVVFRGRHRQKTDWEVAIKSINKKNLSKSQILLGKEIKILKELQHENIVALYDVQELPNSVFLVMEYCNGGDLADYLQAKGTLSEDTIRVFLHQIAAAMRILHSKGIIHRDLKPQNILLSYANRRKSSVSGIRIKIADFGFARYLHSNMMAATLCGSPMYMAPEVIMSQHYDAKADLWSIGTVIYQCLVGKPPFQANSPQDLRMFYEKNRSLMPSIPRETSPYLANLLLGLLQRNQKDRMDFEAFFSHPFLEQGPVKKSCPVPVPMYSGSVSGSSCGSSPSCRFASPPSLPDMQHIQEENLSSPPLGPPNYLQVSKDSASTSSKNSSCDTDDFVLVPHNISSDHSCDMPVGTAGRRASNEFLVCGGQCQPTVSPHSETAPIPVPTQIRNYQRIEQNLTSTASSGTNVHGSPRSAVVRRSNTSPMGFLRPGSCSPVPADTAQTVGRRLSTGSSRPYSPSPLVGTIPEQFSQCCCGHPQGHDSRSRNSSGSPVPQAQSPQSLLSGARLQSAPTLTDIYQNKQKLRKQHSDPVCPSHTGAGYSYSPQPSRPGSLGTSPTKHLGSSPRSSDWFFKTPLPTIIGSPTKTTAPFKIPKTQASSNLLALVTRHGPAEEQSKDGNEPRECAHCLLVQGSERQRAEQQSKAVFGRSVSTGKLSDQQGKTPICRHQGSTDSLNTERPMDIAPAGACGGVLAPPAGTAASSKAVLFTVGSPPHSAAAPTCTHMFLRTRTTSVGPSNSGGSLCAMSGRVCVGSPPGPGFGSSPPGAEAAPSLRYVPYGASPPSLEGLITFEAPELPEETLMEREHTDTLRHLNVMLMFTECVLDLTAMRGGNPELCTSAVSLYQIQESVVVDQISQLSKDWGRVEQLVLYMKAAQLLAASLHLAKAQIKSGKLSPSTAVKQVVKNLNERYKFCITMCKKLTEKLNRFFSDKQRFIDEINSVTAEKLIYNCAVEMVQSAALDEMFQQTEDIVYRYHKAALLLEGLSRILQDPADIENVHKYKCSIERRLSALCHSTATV

[29] = target: BLK (human) (UniProt P51451)
[30] = target: STK10 (human) (UniProt O94804)
[31] = target: TEK (human) (UniProt Q02763)
TEK (human), sequence (Q02763 whole entry, looked up): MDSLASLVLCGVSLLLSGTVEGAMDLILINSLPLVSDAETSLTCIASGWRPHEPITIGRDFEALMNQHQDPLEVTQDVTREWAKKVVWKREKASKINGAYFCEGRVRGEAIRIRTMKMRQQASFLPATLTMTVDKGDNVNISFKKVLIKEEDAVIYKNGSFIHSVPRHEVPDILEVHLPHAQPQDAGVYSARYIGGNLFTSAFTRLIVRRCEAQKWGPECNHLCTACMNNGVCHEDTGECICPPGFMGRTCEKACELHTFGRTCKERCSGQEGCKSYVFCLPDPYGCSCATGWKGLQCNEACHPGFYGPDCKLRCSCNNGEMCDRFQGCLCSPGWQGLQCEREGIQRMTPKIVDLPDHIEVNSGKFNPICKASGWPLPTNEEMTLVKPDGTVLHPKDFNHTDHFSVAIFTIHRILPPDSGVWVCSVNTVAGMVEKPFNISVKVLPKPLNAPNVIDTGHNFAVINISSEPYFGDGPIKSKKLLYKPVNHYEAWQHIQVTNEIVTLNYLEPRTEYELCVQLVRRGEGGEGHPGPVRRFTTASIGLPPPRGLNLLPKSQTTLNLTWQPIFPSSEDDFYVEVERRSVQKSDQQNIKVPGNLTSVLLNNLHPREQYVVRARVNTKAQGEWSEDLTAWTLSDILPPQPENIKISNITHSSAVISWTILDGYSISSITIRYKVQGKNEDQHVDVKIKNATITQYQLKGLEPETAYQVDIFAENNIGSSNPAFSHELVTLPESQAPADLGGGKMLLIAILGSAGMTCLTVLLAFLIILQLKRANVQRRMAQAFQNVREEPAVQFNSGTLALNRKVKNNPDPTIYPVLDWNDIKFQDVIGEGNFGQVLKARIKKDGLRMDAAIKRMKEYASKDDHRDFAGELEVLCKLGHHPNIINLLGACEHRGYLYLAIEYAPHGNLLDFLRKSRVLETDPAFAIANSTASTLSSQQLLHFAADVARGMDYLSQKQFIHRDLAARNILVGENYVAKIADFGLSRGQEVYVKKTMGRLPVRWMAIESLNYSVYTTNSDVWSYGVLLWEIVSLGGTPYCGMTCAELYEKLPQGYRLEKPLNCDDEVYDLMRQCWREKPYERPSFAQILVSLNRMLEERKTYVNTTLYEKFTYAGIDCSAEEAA

[32] = target: RPS6KA5 KD2 (human) (UniProt O75582)
[33] = target: LTK (human) (UniProt P29376)
[34] = target: FGFR4 (human) (UniProt P22455)
[35] = target: PLK2 (human) (UniProt Q9NYY3)
[36] = target: CLK4 (human) (UniProt Q9HAZ1)
[37] = target: TIE1 (human) (UniProt P35590)
[38] = target: PIK3C2G (human) (UniProt O75747)

kinase still bound, per cent of control [1] [%]	kinase still bound, per cent of control [2] [%]	kinase still bound, per cent of control [3] [%]	kinase still bound, per cent of control [4] [%]	kinase still bound, per cent of control [5] [%]	kinase still bound, per cent of control [6] [%]	kinase still bound, per cent of control [7] [%]	kinase still bound, per cent of control [8] [%]	kinase still bound, per cent of control [9] [%]	kinase still bound, per cent of control [10] [%]	kinase still bound, per cent of control [11] [%]	kinase still bound, per cent of control [12] [%]	kinase still bound, per cent of control [13] [%]	kinase still bound, per cent of control [14] [%]	kinase still bound, per cent of control [15] [%]	kinase still bound, per cent of control [16] [%]	kinase still bound, per cent of control [17] [%]	kinase still bound, per cent of control [18] [%]	kinase still bound, per cent of control [19] [%]	kinase still bound, per cent of control [20] [%]	SMILES	other results
100	100	100	100	100	100	100	100	100	100	100	100	100	100	100	100	100	100	100	100	CS(=O)(=O)N1CCN(Cc2cc3nc(-c4cccc5[nH]ncc45)nc(N4CCOCC4)c3s2)CC1	kinase still bound, per cent of control [21]: 100%; kinase still bound, per cent of control [22]: 100%; kinase still bound, per cent of control [23]: 100%; kinase still bound, per cent of control [24]: 100%; kinase still bound, per cent of control [25]: 100%; kinase still bound, per cent of control [26]: 100%; kinase still bound, per cent of control [27]: 100%; kinase still bound, per cent of control [28]: 100%; kinase still bound, per cent of control [29]: 100%; kinase still bound, per cent of control [30]: 100%; kinase still bound, per cent of control [31]: 100%; kinase still bound, per cent of control [32]: 100%; kinase still bound, per cent of control [33]: 100%; kinase still bound, per cent of control [34]: 100%; kinase still bound, per cent of control [35]: 100%
100	0.15	100	100	100	26	100	100	5.2	100	100	100	100	100	100	100	25	100	100	100	CCN(CC)CCCCNc1ncc2c(n1)N(C)C(=O)N(c1c(Cl)c(OC)cc(OC)c1Cl)C2	kinase still bound, per cent of control [36]: 100%; kinase still bound, per cent of control [37]: 10%; kinase still bound, per cent of control [21]: 100%; kinase still bound, per cent of control [22]: 100%; kinase still bound, per cent of control [23]: 100%; kinase still bound, per cent of control [24]: 100%; kinase still bound, per cent of control [25]: 100%; kinase still bound, per cent of control [26]: 100%; kinase still bound, per cent of control [27]: 100%; kinase still bound, per cent of control [28]: 100%; kinase still bound, per cent of control [29]: 100%; kinase still bound, per cent of control [38]: 100%; kinase still bound, per cent of control [30]: 100%; kinase still bound, per cent of control [31]: 100%; kinase still bound, per cent of control [32]: 100%; kinase still bound, per cent of control [33]: 100%; kinase still bound, per cent of control [34]: 0.75%; kinase still bound, per cent of control [35]: 100%
